# Laboratory results from ChEMBL document CHEMBL1126410, “Synthesis and activity in cognition-related tests of novel 2-benzoylamino-4-oxoquinazolines” (1992).
# The source made the active and inactive calls. The calls are words filed in the database; no cut-off is given here.
# Assays:
# Mus musculus [1] = experiment: Evaluated for improvement of anoxic amnesia in mice after ip administration of 50 mg/kg dose; type: functional; details: route intraperitoneal
# Mus musculus [2] = experiment: The compound was evaluated for hypoxic survival activity in mice after intraperitoneal administration at 100 mg/kg dose; 45-65; type: functional; details: ip
# Mus musculus [3] = experiment: The compound was evaluated for hypoxic survival activity in mice after intraperitoneal administration at 100 mg/kg dose; 50-90; type: functional; details: ip
# Mus musculus [4] = experiment: The compound was evaluated for hypoxic survival activity in mice after intraperitoneal administration at 50 mg/kg dose; 80-90; type: functional; details: ip
# Mus musculus [5] = experiment: The compound was evaluated for hypoxic survival activity in mice after intraperitoneal administration at 100 mg/kg dose; 65-80; type: functional; details: ip
# Mus musculus [6] = experiment: Evaluated for improvement of anoxic amnesia in mice after ip administration of 100 mg/kg dose; type: functional; details: route intraperitoneal
# Mus musculus [7] = experiment: Evaluated for improvement of anoxic amnesia in mice after ip administration of 10 mg/kg dose(218 delay seconds); -19-248; type: functional; details: route intraperitoneal
# Mus musculus [8] = experiment: Evaluated for improvement of anoxic amnesia in mice after ip administration of 25 mg/kg dose(341 delay seconds); 79-131; type: functional; details: route intraperitoneal
# Mus musculus [9] = experiment: The compound was evaluated for hypoxic survival activity in mice after intraperitoneal administration at 100 mg/kg dose; 75-80; type: functional; details: ip
# Rattus norvegicus [10] = experiment: Evaluated for improvement of anoxic amnesia in aged rat after ip administration of 10 mg/kg dose(529 delay seconds); type: functional; details: route intraperitoneal
# Rattus norvegicus [11] = experiment: Evaluated for improvement of anoxic amnesia in aged rat after ip administration of 25 mg/kg (300 delay seconds); type: functional; details: route intraperitoneal
# Mus musculus [12] = experiment: The compound was evaluated for hypoxic survival activity in mice after intraperitoneal administration at 100 mg/kg dose; 55-55; type: functional; details: ip
# Mus musculus [13] = experiment: The compound was evaluated for hypoxic survival activity in mice after intraperitoneal administration at 100 mg/kg dose; 50-95; type: functional; details: ip
# Mus musculus [14] = experiment: The compound was evaluated for hypoxic survival activity in mice after intraperitoneal administration at 10 mg/kg dose; 50-75; type: functional; details: ip
# Mus musculus [15] = experiment: The compound was evaluated for hypoxic survival activity in mice after intraperitoneal administration at 0.125 mg/kg dose; 60-80; type: functional; details: ip
# Mus musculus [16] = experiment: The compound was evaluated for hypoxic survival activity in mice after intraperitoneal administration at 10-100 mg/kg dose; Inactive; type: functional, organism-based
# Mus musculus [17] = experiment: The compound was evaluated for hypoxic survival activity in mice after intraperitoneal administration at 10 mg/kg dose; 30-80; type: functional; details: ip
# Mus musculus [18] = experiment: The compound was evaluated for hypoxic survival activity in mice after intraperitoneal administration at 100 mg/kg dose; type: functional; details: ip
# Mus musculus [19] = experiment: The compound was evaluated for hypoxic survival activity in mice after intraperitoneal administration at 100 mg/kg dose; 80-85; type: functional; details: ip
smiles,measurement,setting,value
Cc1ccc(C(=O)Nc2nc(=O)c3ccccc3n2C)cc1,Improvement,Mus musculus [1],224%
same,survival at 100 mg/kg,Mus musculus [2],55%
COc1cc2nc(NC(=O)c3ccccc3)nc(O)c2cc1OC,survival at 100 mg/kg,Mus musculus [3],70%
Cc1ccc(C(=O)Nc2nc3ccccc3c(=O)n2C)cc1,Improvement,Mus musculus [1],116%
same,survival at 50 mg/kg,Mus musculus [4],85%
O=C(Nc1nc(O)c2ccccc2n1)c1ccccc1,Improvement,Mus musculus [1],130%
same,survival at 100 mg/kg,Mus musculus [5],73%
Cn1c(NC(=O)c2ccccc2)nc2ccccc2c1=O,Improvement,Mus musculus [6],78%
same,Improvement,Mus musculus [7],94%
same,Improvement,Mus musculus [8],105%
same,survival at 100 mg/kg,Mus musculus [9],78%
same,Improvement,Rattus norvegicus [10],1369%
same,Improvement,Rattus norvegicus [11],733%
Cc1ccc2nc(NC(=O)c3ccccc3)nc(O)c2c1,survival at 100 mg/kg,Mus musculus [12],55%
Cn1c(NC(=O)c2ccccc2)nc(=O)c2ccccc21,survival at 100 mg/kg,Mus musculus [13],70%
Cc1ccc(C(=O)Nc2nc(O)c3ccccc3n2)cc1,survival at 10 mg/kg,Mus musculus [14],63%
CNC(=O)Oc1ccc2c(c1)[C@]1(C)CCN(C)[C@@H]1N2C [PHYSOSTIGMINE],survival at 0.125 mg/kg,Mus musculus [15],60%
Cc1cccc(C(=O)Nc2nc(=O)c3ccccc3n2C)c1,Survival,Mus musculus [16],inactive
O=C(Nc1nc(O)c2ccccc2n1)c1ccc(Cl)cc1,survival at 10 mg/kg,Mus musculus [17],55%
COc1ccc(C(=O)Nc2nc(O)c3ccccc3n2)cc1,survival at 10 mg/kg,Mus musculus [14],63%
CC(C)n1c(NC(=O)c2ccccc2)nc2ccccc2c1=O,survival at 100 mg/kg,Mus musculus [18],55%
Cc1cccc(C(=O)Nc2nc(O)c3ccccc3n2)c1,survival at 100 mg/kg,Mus musculus [19],83%
